Reference: article PMC5452050 (ACS Omega, 2017)
Changes are numbered by the printed parent chain.

The molecules below were run against T1, FLT3 (D835H) (Homo sapiens, UniProt P36888, D835H) (assay: Kd determination).
T1 sequence (P36888 27-993 D835H): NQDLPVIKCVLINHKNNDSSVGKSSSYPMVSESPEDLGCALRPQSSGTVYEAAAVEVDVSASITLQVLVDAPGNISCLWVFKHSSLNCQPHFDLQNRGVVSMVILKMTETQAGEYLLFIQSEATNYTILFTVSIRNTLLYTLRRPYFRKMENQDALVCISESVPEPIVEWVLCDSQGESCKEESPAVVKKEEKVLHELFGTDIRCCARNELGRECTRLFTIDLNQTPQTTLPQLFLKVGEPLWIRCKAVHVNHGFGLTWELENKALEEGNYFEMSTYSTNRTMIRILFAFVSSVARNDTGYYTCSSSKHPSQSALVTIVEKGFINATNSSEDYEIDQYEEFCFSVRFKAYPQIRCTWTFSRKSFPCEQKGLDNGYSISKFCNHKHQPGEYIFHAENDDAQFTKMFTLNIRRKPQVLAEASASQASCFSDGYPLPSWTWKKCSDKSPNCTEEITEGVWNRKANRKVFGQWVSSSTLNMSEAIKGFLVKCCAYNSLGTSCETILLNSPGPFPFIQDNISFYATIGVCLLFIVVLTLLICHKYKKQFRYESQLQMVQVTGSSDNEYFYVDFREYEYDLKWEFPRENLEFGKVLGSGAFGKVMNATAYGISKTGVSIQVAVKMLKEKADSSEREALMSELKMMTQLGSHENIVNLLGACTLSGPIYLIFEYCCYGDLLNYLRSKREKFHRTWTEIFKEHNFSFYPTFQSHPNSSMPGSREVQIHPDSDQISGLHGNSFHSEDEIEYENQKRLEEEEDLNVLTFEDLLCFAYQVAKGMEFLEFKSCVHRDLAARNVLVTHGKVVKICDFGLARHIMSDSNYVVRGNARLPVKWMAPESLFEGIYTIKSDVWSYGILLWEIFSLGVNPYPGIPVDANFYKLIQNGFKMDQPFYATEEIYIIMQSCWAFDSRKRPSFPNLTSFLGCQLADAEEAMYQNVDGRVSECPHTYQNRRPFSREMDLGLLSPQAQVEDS
Assay type: binding

First: c1cncc(-c2cccc(Nc3nccc(NC4CCCCC4)n3)c2)c1 [Compound 1, N^4-Cyclohexyl-N^2-(3-(pyridin-3-yl)phenyl)pyrimidine-2,4-diamine]
Second: CC(C)Nc1ccnc(Nc2cccc(-c3cccnc3)c2)n1 [Compound 5e, N^4-Isopropyl-N^2-(3-(pyridin-3-yl)phenyl)pyrimidine-2,4-diamine]
The Kd of the first is 18-fold higher: 22 nM for the first, 1.2 nM for the second.

In the case of `CC(C)Nc1ccnc(Nc2ccccc2-c2ccccc2)n1` [Compound 6a, N^2-([1,1′-Biphenyl]-2-yl)-N^4-isopropylpyrimidine-2,4-diamine], the Kd is reported as greater than 10000 nM.

Each molecule was assayed against T2, FLT3 (ITD) (Homo sapiens, UniProt P36888, ITD) (assay: Kd determination).
T2 sequence (P36888 564-993): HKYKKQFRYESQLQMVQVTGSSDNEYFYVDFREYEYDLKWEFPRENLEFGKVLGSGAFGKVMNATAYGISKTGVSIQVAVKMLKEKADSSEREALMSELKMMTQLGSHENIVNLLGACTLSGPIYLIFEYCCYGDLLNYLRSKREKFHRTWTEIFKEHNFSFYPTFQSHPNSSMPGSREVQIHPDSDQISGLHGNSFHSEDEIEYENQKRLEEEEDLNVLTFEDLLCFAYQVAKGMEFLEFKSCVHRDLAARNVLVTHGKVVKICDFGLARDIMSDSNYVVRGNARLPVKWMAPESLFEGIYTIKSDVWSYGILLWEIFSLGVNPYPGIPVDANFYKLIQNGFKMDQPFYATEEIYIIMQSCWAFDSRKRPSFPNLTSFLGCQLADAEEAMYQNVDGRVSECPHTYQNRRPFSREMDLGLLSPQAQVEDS
Assay type: binding

First: c1cncc(-c2cccc(Nc3nccc(NC4CCCCC4)n3)c2)c1 [Compound 1, N^4-Cyclohexyl-N^2-(3-(pyridin-3-yl)phenyl)pyrimidine-2,4-diamine]
Second: CC(C)Nc1ccnc(Nc2cccc(-c3cccnc3)c2)n1 [Compound 5e, N^4-Isopropyl-N^2-(3-(pyridin-3-yl)phenyl)pyrimidine-2,4-diamine]
The Kd of the first is 22-fold higher: 31 nM for the first, 1.4 nM for the second.

`CC(C)Nc1ccnc(Nc2ccccc2-c2ccccc2)n1` [Compound 6a, N^2-([1,1′-Biphenyl]-2-yl)-N^4-isopropylpyrimidine-2,4-diamine] gave a Kd greater than 10000 nM.

The molecules below were run against T3, FLT3-autoinhibited (Homo sapiens, UniProt P36888) (assay: Kd determination).
T3 sequence (P36888 564-993 limits assumed): T2 sequence (P36888 564-993)
Assay type: binding

Compared with `c1cncc(-c2cccc(Nc3nccc(NC4CCCCC4)n3)c2)c1` [Compound 1, N^4-Cyclohexyl-N^2-(3-(pyridin-3-yl)phenyl)pyrimidine-2,4-diamine], `CC(C)Nc1ccnc(Nc2cccc(-c3cccnc3)c2)n1` [Compound 5e, N^4-Isopropyl-N^2-(3-(pyridin-3-yl)phenyl)pyrimidine-2,4-diamine] is 14-fold lower in Kd: 1100 nM for the first, 78 nM for the second. The second binds more tightly here.

With `CC(C)Nc1ccnc(Nc2ccccc2-c2ccccc2)n1` [Compound 6a, N^2-([1,1′-Biphenyl]-2-yl)-N^4-isopropylpyrimidine-2,4-diamine] the Kd was greater than 10000 nM.

These molecules were tested against T4, FLT3 (ITD, F691L) (Homo sapiens, UniProt P36888, F691L/ITD) (assay: Kd determination).
T4 sequence (P36888 564-993 F691L): T2 sequence (P36888 564-993) with F128L
Assay type: binding

Going from `c1cncc(-c2cccc(Nc3nccc(NC4CCCCC4)n3)c2)c1` [Compound 1, N^4-Cyclohexyl-N^2-(3-(pyridin-3-yl)phenyl)pyrimidine-2,4-diamine] to `CC(C)Nc1ccnc(Nc2cccc(-c3cccnc3)c2)n1` [Compound 5e, N^4-Isopropyl-N^2-(3-(pyridin-3-yl)phenyl)pyrimidine-2,4-diamine], the Kd falls from 270 nM to 11 nM (25-fold). The second binds more tightly here.

With `CC(C)Nc1ccnc(Nc2ccccc2-c2ccccc2)n1` [Compound 6a, N^2-([1,1′-Biphenyl]-2-yl)-N^4-isopropylpyrimidine-2,4-diamine] the Kd was greater than 10000 nM.

Each molecule was assayed against T5, FLT3 (R834Q) (Homo sapiens, UniProt P36888, R834Q) (assay: Kd determination).
T5 sequence (P36888 27-993 R834Q): T1 sequence (P36888 27-993 D835H) with R808Q, H809D
Assay type: binding

Going from `c1cncc(-c2cccc(Nc3nccc(NC4CCCCC4)n3)c2)c1` [Compound 1, N^4-Cyclohexyl-N^2-(3-(pyridin-3-yl)phenyl)pyrimidine-2,4-diamine] to `CC(C)Nc1ccnc(Nc2cccc(-c3cccnc3)c2)n1` [Compound 5e, N^4-Isopropyl-N^2-(3-(pyridin-3-yl)phenyl)pyrimidine-2,4-diamine], the Kd falls from 680 nM to 82 nM (8.3-fold). The second binds more tightly here.

With `CC(C)Nc1ccnc(Nc2ccccc2-c2ccccc2)n1` [Compound 6a, N^2-([1,1′-Biphenyl]-2-yl)-N^4-isopropylpyrimidine-2,4-diamine] the Kd was greater than 10000 nM.
